Measured values: publication PMC6133161, “Thiazoles with cyclopropyl fragment as antifungal, anticonvulsant, and anti-Toxoplasma gondii agents: synthesis, toxicity evaluation, and molecular docking study” (Medicinal Chemistry Research, 2018)
Values after ≈ are worked out from the molar mass of the structure shown.

Test system: Toxoplasma gondii RH strain
Assay: [3H]-uracil incorporation assay in VERO host cells

Nc1ccc(S(=O)(=O)Nc2ncccn2)cc1 [Sulfadiazine, reference compound]
Proliferation of Tg ± SD (1 µg/ml): 104.59 ±4.12%
Proliferation of Tg ± SD (5 µg/ml): 96.71 ±3.85%
Proliferation of Tg ± SD (25 µg/ml): 78.58 ±4.67%
Proliferation of Tg ± SD (50 µg/ml): 67.99 ±7.73%
Proliferation of Tg ± SD (125 µg/ml): 65.58 ±4.80%
Proliferation of Tg ± SD (250 µg/ml): 61.79 ±3.13%
Proliferation of Tg ± SD (500 µg/ml): 56.68 ±3.64%
Proliferation of Tg ± SD (1250 µg/ml): 45.17 ±1.03%
Proliferation of Tg ± SD (2500 µg/ml): 45.36 ±0.58%
IC50 (Toxoplasma gondii, Vero, read-out: IC50 anti-Tg): 936 µg/mL (≈ 3.74 mM)
